In US4857324A, “Exogenously acidified antacid compositions having cytoprotective properties” (priority 1987, dated 1989):

Columns and labels:
[1] = system: ethanol induced gastric ulcers in the rat; test: ethanol-induced lesion assay (cytoprotective activity) in rats; format: in vivo, rat (male Sprague-Dawley); conditions: for % INHIBITION: Table 4
Text: The cytoprotective activity of a compound may be observed in both animals and man by noting the increase resistance of the gastrointestinal mucosa to the noxious effects of strong irritants, for example, the ulcerogenic effects of aspirin or indomethacin.
The ethanol-induced lesion assay is a standard test for cytoprotective activity and is described in an article by A. Robert et al entitled "Cytoprotection By Prostaglandins in Rats" published in Gastroenterology 77:433-443, 1979.
The ethanol-induced lesion assay was used to measure the cytoprotective ability of commercial antacids. Male Sprague-Dawley rats (supplier, Charles River, Willmington, Mass.) weighing between 120-150 g were used. The rats were fasted for 24 hr prior to use (water ad libitum). Before dosing, the animals were placed two per cage and denied water.
Animals were orally, i.e. intragastrically pretreated, one hour before ethanol administration with either RIOPAN Extra Strength suspension, MAALOX suspension, PGE2, or vehicle. One hour after ethanol administration, the rats were sacrificed by CO2 asphyxiation. The stomachs were removed and kept moist with saline until the lesions were scored. Ulcers were scored with the investigator unaware of the treatment groups (single blind). Ulcers were graded according to the following scale: […]
GRADE (Approximate length of lesion)
Absolute ethanol was given orally, 1 ml/rat. RIOPAN Extra Strength, 1080 mg magaldrate per 5 ml (lot 3RM4), and MAALOX, 200 mg Mg(OH)2 +225 mg Al(OH)3 per 5 ml (lot 64700), were administered orally as commercially available suspensions. The dose volume administered was based on the ED50 (ml of antacid/kg, see Table 1).
The dose volume of acidified antacid was adjusted for the volume of 6 N HCl added to the suspension. PGE2 was stored in 100% ethanol and diluted with normal saline before use.
Magaldrate of Example 1 and MAALOX of Example 2 were prepared as described above. The dose volume of nonbuffering antacid was adjusted for the volume of 6 N HCl added to the suspension during preparation. PGE2 was stored in 100% ethanol and diluted with normal saline before use.
The mean ulcer score of each treatment group was compared to the control group and expressed as the percent inhibition of ulcer formation.
The cytoprotective ED50 before and after acidification for the magaldrate of Example 1, referred to in this example as RIOPAN Extra Strength, and for MAALOX of Example 2 was calculated by standard regression analysis of the dose-response data. Confidence limits of 95% were calculated using the statistical differential method.
The spray dried powders of Examples 8 through 15 were tested for cytoprotective activity in the ethanol-induced lesion assay as described in Example 7.
The respective powders were admixed with sufficient water to form a liquid and the animals were dosed 400 milligrams of powder per kilo of body weight […]. in the test.
The experiments were performed using ten rats for each test composition and using the in vivo test procedure described in Example 7. The dose of acidified Extra Strength RIOPAN was selected for the test at 0.46 milliliters per kilogram of rat body weight. Approximately 4.6 times this amount (8 times on a mg/kg basis) was selected for the dose of commercial Extra Strength RIOPAN. Approximately 30 times this amount was selected for each dose of the Wenger et al solutions.
Two experiments were performed using ten rats for each test composition and again using the in vivo test procedure described in Example 7. In these experiments the dose in milliliters per kilogram of rat body weight was equal for each test composition.

[2] = per 5 ml of suspension or liquid; cited from earlier work
[3] = system: ethanol induced ulcer; conditions: Robert et al 1984; cited from earlier work
[4] = system: gastric mucosa; conditions: literature; cited from earlier work
[5] = system: gastric acid secretion; conditions: in vivo; cited from earlier work

In the case of `O.O=S(=O)([O-])[O-].O=S(=O)([O-])[O-].[Al+3].[Al+3].[Al+3].[Al+3].[Al+3].[Mg+2].[Mg+2].[Mg+2].[Mg+2].[Mg+2].[Mg+2].[Mg+2].[Mg+2].[Mg+2].[Mg+2].[OH-].[OH-].[OH-].[OH-].[OH-].[OH-].[OH-].[OH-].[OH-].[OH-].[OH-].[OH-].[OH-].[OH-].[OH-].[OH-].[OH-].[OH-].[OH-].[OH-].[OH-].[OH-].[OH-].[OH-].[OH-].[OH-].[OH-].[OH-].[OH-].[OH-].[OH-]` [magaldrate, aluminum magnesium hydroxide sulfate], the “effect on ethanol induced ulcers (in words)” value ([1]; rat, p.o.) is listed as “inhibit ethanol induced ulcers in rats” and the “acid neutralized / acid neutralization capacity (ANC)” value [2] is listed as 13.5 to 15 mEq.

For `CC(C)[N+](C)(CCOC(=O)C1c2ccccc2Oc2ccccc21)C(C)C` [propantheline bromide], the “protection in the ethanol induced ulcer model” value [3] is given as “do not protect in this model”.

For `[OH][Al]([OH])[OH]` [Al(OH)3, aluminum hydroxide], the “gastric cytoprotection (in words)” value [4] is listed as “have cytoprotective properties”.

For `CN/C(=N/CCSCc1nc[nH]c1C)NC#N` [cimetidine], the “protection in the ethanol induced ulcer model” value [3] is given as “do not protect in this model”.

For `CCCCC[C@H](O)/C=C/[C@H]1[C@H](O)CC(=O)[C@@H]1C/C=C\CCCC(=O)O` [PGE2], the “% INHIBITION” value ([1]; dose 25 g/kg p.o. (so in the source)) was 39%, the “% INHIBITION” value ([1]; dose 50 g/kg p.o. (so in the source)) was 63% and the “% INHIBITION” value ([1]; dose 75 g/kg p.o. (so in the source)) was 80%. For the same compound, the “effect on ethanol induced ulcers (in words)” value ([1]; rat, p.o.) was “inhibited ethanol induced ulcer formation” and the “potency of PGE2 relative to acidified RIOPAN Extra Strength or acidified MAALOX” value ([1]; rat, p.o.) was “approximately 1000 times”.

For `CCCCC[C@H](O)/C=C/[C@@H]1[C@@H](C/C=C\CCCC(=O)O)[C@@H](O)C[C@H]1O` [prostaglandin F2], the “gastric cytoprotection (in words)” value [4] is given as “does induce gastric cytoprotection” and the “inhibition of gastric acid secretion” value [5] is given as “does not inhibit gastric acid secretion”.

With `[Cl][Al]([Cl])[Cl]` [aluminum chloride] the “cytoprotective activity (in words)” value ([1]; ethanol-induced gastric lesion model) was “does not exhibit such activity”.
